Test results as given in patent publication US20230301300A1, “HERBICIDAL COMPOSITIONS” (SYNGENTA CROP PROTECTION AG, priority 2020, published 2023).

What was measured:
Experiment in all cases: B2 Post-Emergence Efficacy - Test 2
Type in all cases: in vivo
[1] = system: Digitaria sanguinalis (DIGSA); details: 15 days after application, 0=no damage, 100=total kill
In short: (§1)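 Pots of plants grown 12 days in a glasshouse (24/18 or 20/16 °C day/night, 16 h light, 65% humidity) were sprayed post-emergence with aqueous IF50-formulated compound plus 0.2% v/v Genapol X080. Damage scored 15 days after application on a 0–100 scale (0 = no damage, 100 = total kill).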

[2] = system: Echinochloa crus galli (ECHCG); details: 15 days after application, 0=no damage, 100=total kill
In short: as §1

[3] = system: Abutilon theophrasti (ABUTH); details: 15 days after application, 0-100 scale
In short: as §1

[4] = system: Bidens pilosa (BIDPI); details: 15 days after application, 0-100 scale
In short: as §1

[5] = system: Lolium perenne (LOLPE); details: 15 days after application, 0-100 scale
In short: as §1

[6] = system: Sinapis arvensis (SINAR); details: 15 days after application, 0-100 scale
In short: as §1

[7] = system: Chenopodium album (CHEAL); details: 15 days after application, 0-100 scale
In short: as §1

[8] = system: Triticum aestivum (TRZAW); details: 15 days after application, 0-100 scale
In short: as §1

[9] = system: Zea mays (ZEAMX); details: 15 days after application; for Herbicidal activity ZEAMX: 0-100 scale; for Herbicidal activity on a 0-100 scale, ZEAMX: 0=no damage, 100=total kill
In short: as §1

[10] = system: Bromus tectorum (BROTE); details: 15 days after application, 0-100 scale
In short: as §1

[11] = system: Hordeum vulgare (HORVW); details: 15 days after application, 0-100 scale
In short: as §1

[12] = system: Alopecurus myosuroides (ALOMY); details: 15 days after application, 0-100 scale
In short: as §1

[13] = system: Setaria faberi (SETFA); details: 15 days after application, 0=no damage, 100=total kill
In short: as §1

[14] = system: Euphorbia hetrophylla (EPHHL); details: 15 days after application, 0-100 scale
In short: as §1

[15] = system: Stellaria media (STEME); details: 15 days after application, 0-100 scale
In short: as §1

[16] = system: Eleisine indica (ELEIN); details: 15 days after application, 0=no damage, 100=total kill
In short: as §1

[17] = system: Brachiaria plantaginea (BRAPL); details: 15 days after application, 0=no damage, 100=total kill
In short: as §1

[18] = system: Sorghum bicolour (SORVU); details: 15 days after application, 0=no damage, 100=total kill
In short: as §1

Cc1nn(C)c(=O)c(-c2c(F)ccc(Cl)c2CCc2ccccc2C(F)(F)F)c1O [Compound 1.066, 4-[3-chloro-6-fluoro-2-[2-[2-(trifluoromethyl)phenyl]ethyl]phenyl]-5-hydroxy-2,6-dimethyl-pyridazin-3-one]
Herbicidal activity on a 0-100 scale, DIGSA ([1]; 15 g/Ha): 0
Herbicidal activity on a 0-100 scale, DIGSA ([1]; 30 g/Ha): 20
Herbicidal activity on a 0-100 scale, DIGSA ([1]; 60 g/Ha): 20
Herbicidal activity on a 0-100 scale, DIGSA ([1]; 125 g/Ha): 40
Herbicidal activity on a 0-100 scale, DIGSA ([1]; 250 g/Ha): 70
Herbicidal activity on a 0-100 scale, DIGSA ([1]; 500 g/Ha): 70
Herbicidal activity on a 0-100 scale, ECHCG ([2]; 15 g/Ha): 20
Herbicidal activity on a 0-100 scale, ECHCG ([2]; 30 g/Ha): 80
Herbicidal activity on a 0-100 scale, ECHCG ([2]; 60 g/Ha): 90
Herbicidal activity on a 0-100 scale, ECHCG ([2]; 125 g/Ha): 90
Herbicidal activity on a 0-100 scale, ECHCG ([2]; 250 g/Ha): 90
Herbicidal activity on a 0-100 scale, ECHCG ([2]; 500 g/Ha): 90
Herbicidal activity ABUTH ([3]; 15 g/Ha): 20
Herbicidal activity ABUTH ([3]; 30 g/Ha): 50
Herbicidal activity ABUTH ([3]; 60 g/Ha): 50
Herbicidal activity ABUTH ([3]; 125 g/Ha): 90
Herbicidal activity ABUTH ([3]; 250 g/Ha): 90
Herbicidal activity ABUTH ([3]; 500 g/Ha): 100
Herbicidal activity BIDPI ([4]; 15 g/Ha): 50
Herbicidal activity BIDPI ([4]; 30 g/Ha): 60
Herbicidal activity BIDPI ([4]; 60 g/Ha): 70
Herbicidal activity BIDPI ([4]; 125 g/Ha): 80
Herbicidal activity BIDPI ([4]; 250 g/Ha): 90
Herbicidal activity BIDPI ([4]; 500 g/Ha): 90
Herbicidal activity LOLPE ([5]; 15 g/Ha): 10
Herbicidal activity LOLPE ([5]; 30 g/Ha): 20
Herbicidal activity LOLPE ([5]; 60 g/Ha): 80
Herbicidal activity LOLPE ([5]; 125 g/Ha): 90
Herbicidal activity LOLPE ([5]; 250 g/Ha): 90
Herbicidal activity LOLPE ([5]; 500 g/Ha): 100
Herbicidal activity SINAR ([6]; 15 g/Ha): 60
Herbicidal activity SINAR ([6]; 30 g/Ha): 60
Herbicidal activity SINAR ([6]; 60 g/Ha): 80
Herbicidal activity SINAR ([6]; 125 g/Ha): 90
Herbicidal activity SINAR ([6]; 250 g/Ha): 90
Herbicidal activity SINAR ([6]; 500 g/Ha): 90
Herbicidal activity CHEAL ([7]; 30 g/Ha): 90
Herbicidal activity CHEAL ([7]; 60 g/Ha): 90
Herbicidal activity CHEAL ([7]; 125 g/Ha): 90
Herbicidal activity CHEAL ([7]; 250 g/Ha): 100
Herbicidal activity CHEAL ([7]; 500 g/Ha): 100
Herbicidal activity TRZAW ([8]; 15 g/Ha): 0
Herbicidal activity TRZAW ([8]; 30 g/Ha): 10
Herbicidal activity TRZAW ([8]; 60 g/Ha): 40
Herbicidal activity TRZAW ([8]; 125 g/Ha): 60
Herbicidal activity TRZAW ([8]; 250 g/Ha): 70
Herbicidal activity TRZAW ([8]; 500 g/Ha): 80
Herbicidal activity ZEAMX ([9]; 15 g/Ha): 0
Herbicidal activity on a 0-100 scale, ZEAMX ([9]; 15 g/Ha): 0
Herbicidal activity ZEAMX ([9]; 30 g/Ha): 20
Herbicidal activity on a 0-100 scale, ZEAMX ([9]; 30 g/Ha): 20
Herbicidal activity ZEAMX ([9]; 60 g/Ha): 20
Herbicidal activity on a 0-100 scale, ZEAMX ([9]; 60 g/Ha): 20
Herbicidal activity ZEAMX ([9]; 125 g/Ha): 20
Herbicidal activity on a 0-100 scale, ZEAMX ([9]; 125 g/Ha): 20
Herbicidal activity ZEAMX ([9]; 250 g/Ha): 30
Herbicidal activity on a 0-100 scale, ZEAMX ([9]; 250 g/Ha): 30
Herbicidal activity ZEAMX ([9]; 500 g/Ha): 70
Herbicidal activity on a 0-100 scale, ZEAMX ([9]; 500 g/Ha): 70
Herbicidal activity BROTE ([10]; 15 g/Ha): 0
Herbicidal activity BROTE ([10]; 30 g/Ha): 20
Herbicidal activity BROTE ([10]; 60 g/Ha): 60
Herbicidal activity BROTE ([10]; 125 g/Ha): 70
Herbicidal activity BROTE ([10]; 250 g/Ha): 80
Herbicidal activity BROTE ([10]; 500 g/Ha): 90
Herbicidal activity HORVW ([11]; 15 g/Ha): 0
Herbicidal activity HORVW ([11]; 30 g/Ha): 10
Herbicidal activity HORVW ([11]; 60 g/Ha): 20
Herbicidal activity HORVW ([11]; 125 g/Ha): 70
Herbicidal activity HORVW ([11]; 250 g/Ha): 80
Herbicidal activity HORVW ([11]; 500 g/Ha): 90
Herbicidal activity ALOMY ([12]; 15 g/Ha): 20
Herbicidal activity ALOMY ([12]; 30 g/Ha): 50
Herbicidal activity ALOMY ([12]; 60 g/Ha): 70
Herbicidal activity ALOMY ([12]; 125 g/Ha): 80
Herbicidal activity ALOMY ([12]; 250 g/Ha): 90
Herbicidal activity ALOMY ([12]; 500 g/Ha): 90
Herbicidal activity on a 0-100 scale, SETFA ([13]; 15 g/Ha): 0
Herbicidal activity on a 0-100 scale, SETFA ([13]; 30 g/Ha): 70
Herbicidal activity on a 0-100 scale, SETFA ([13]; 60 g/Ha): 70
Herbicidal activity on a 0-100 scale, SETFA ([13]; 125 g/Ha): 80
Herbicidal activity on a 0-100 scale, SETFA ([13]; 250 g/Ha): 90
Herbicidal activity on a 0-100 scale, SETFA ([13]; 500 g/Ha): 90
Herbicidal activity EPHHL ([14]; 15 g/Ha): 60
Herbicidal activity EPHHL ([14]; 30 g/Ha): 70
Herbicidal activity EPHHL ([14]; 60 g/Ha): 80
Herbicidal activity EPHHL ([14]; 125 g/Ha): 90
Herbicidal activity EPHHL ([14]; 250 g/Ha): 100
Herbicidal activity EPHHL ([14]; 500 g/Ha): 100
Herbicidal activity STEME ([15]; 15 g/Ha): 80
Herbicidal activity STEME ([15]; 30 g/Ha): 60
Herbicidal activity STEME ([15]; 60 g/Ha): 90
Herbicidal activity STEME ([15]; 125 g/Ha): 90
Herbicidal activity STEME ([15]; 250 g/Ha): 90
Herbicidal activity STEME ([15]; 500 g/Ha): 100
Herbicidal activity on a 0-100 scale, ELEIN ([16]; 15 g/Ha): 0
Herbicidal activity on a 0-100 scale, ELEIN ([16]; 30 g/Ha): 20
Herbicidal activity on a 0-100 scale, ELEIN ([16]; 60 g/Ha): 70
Herbicidal activity on a 0-100 scale, ELEIN ([16]; 125 g/Ha): 70
Herbicidal activity on a 0-100 scale, ELEIN ([16]; 250 g/Ha): 70
Herbicidal activity on a 0-100 scale, ELEIN ([16]; 500 g/Ha): 80
Herbicidal activity on a 0-100 scale, BRAPL ([17]; 15 g/Ha): 0
Herbicidal activity on a 0-100 scale, BRAPL ([17]; 30 g/Ha): 60
Herbicidal activity on a 0-100 scale, BRAPL ([17]; 125 g/Ha): 80
Herbicidal activity on a 0-100 scale, BRAPL ([17]; 250 g/Ha): 70
Herbicidal activity on a 0-100 scale, BRAPL ([17]; 500 g/Ha): 100
Herbicidal activity on a 0-100 scale, SORVU ([18]; 15 g/Ha): 0
Herbicidal activity on a 0-100 scale, SORVU ([18]; 30 g/Ha): 20
Herbicidal activity on a 0-100 scale, SORVU ([18]; 60 g/Ha): 60
Herbicidal activity on a 0-100 scale, SORVU ([18]; 125 g/Ha): 80
Herbicidal activity on a 0-100 scale, SORVU ([18]; 250 g/Ha): 90
Herbicidal activity on a 0-100 scale, SORVU ([18]; 500 g/Ha): 100
